Data on 15 compounds can be found in US20230192661A1, “1, 4, 5, 6-TETRAHYDROPYRIMIDINE-2-AMINE DERIVATIVE” (UBE Corporation, priority 2020, published 2023).

A value given as a limit tells only on which side of the number the result lay.

Experiment [1] concerns the target T1, αvβ6 (Homo sapiens, UniProt P06756+P18564).
T1 construct: endogenous in cells; host or cells: HT-29 cells
The experiment can be described thus: αvβ6 cell adhesion inhibition test (HT-29 cells on recombinant human LAP protein). The format is cell-based. The conditions noted are these: recombinant human LAP coating, 200 μM MnCl2, 1 hour, read-out: IC50 (rate of inhibition of cell adhesion, αvβ6). As to the method: Test Example 2 was performed by partially modifying the method of Henderson et al. (Nat Med., 19 (12), 1617-24, 2013). In Test Example 2, the same reagents as in Test Example 1 were used unless otherwise specified.
Recombinant human LAP protein (manufactured by R&D Systems, Inc., 246-LP-025) was prepared at […] with PBS, dispensed at 100 μL/well to a 96-well plate, and left standing overnight. The plate was washed with HBSS, then subjected to blocking treatment with DMEM containing 1% BSA, and used as a coated plate in the adhesion test.
HT-29 cells cultured in McCoy's 5A medium (manufactured by Thermo Fisher Scientific, Inc., 16600) containing 10% FBS and 1% penicillin/streptomycin/amphotericin B were recovered and suspended in DMEM containing 0.1% BSA and 200 μM MnCl2 to prepare a cell suspension. A test compound was added thereto.
The cell suspension of 5×10^5 cells/mL containing the test compound was added at 100 μL/well to the coated plate and left standing for 1 hour in a 5% CO2 incubator (37° C.). One hour later, the supernatant was removed, and the plate was washed with HBSS containing 200 μM MnCl2. The cells that adhered to each well in the plate were stained with crystal violet, and the cells were lysed, followed by absorbance measurement. Inhibition without substrate coating was defined as 100% inhibition, and inhibition when DMSO was added instead of the test compound was defined as 0% inhibition. The rate of inhibition of cell adhesion by the test compound was calculated according to the following expression.
Rate of inhibition of cell adhesion (%)=[1−{(Absorbance in the case of adding the test compound)−(Absorbance without substrate coating)}/{(Absorbance in the case of adding DMS)−(Absorbance without substrate coating)}]×100
An IC50 value was calculated from the rate of inhibition of cell adhesion by the test compound. A: IC50<3 nM, B: 3 nM≤IC50<10 nM, C: 10 nM≤IC50<30 nM, D: 30 nM≤IC50<100 nM, or E: IC50≥100 nM.

The test system of experiment [2] is TGF-β activation (phosphorylated SMAD3). The experiment can be described thus: TGF-β activation inhibition test (inhibition of SMAD3 phosphorylation in TFK-1 cells). The format is cell-based. The settings on record: 48 h, fibronectin-coated plate, cultured 2 days, read-out: IC50 (rate of inhibition of phosphorylated SMAD3). As to the method: In Test Example 3, the inhibition of TGF-β activation by a compound was detected with the inhibition of SMAD3 phosphorylation as an index. In Test Example 3, the same reagents as in Test Example 1 were used unless otherwise specified.
Human fibronectin was prepared at 14 μg/mL with PBS and then dispensed at 50 μL/well to a 96-well plate. The plate was left standing at room temperature for 1 hour or longer, followed by the removal of the fibronectin solution. The plate was washed with PBS and used as a coated plate.
A test compound dissolved in DMSO was added to RPMI medium 1640 (manufactured by Thermo Fisher Scientific, Inc., 11875) containing 1% FBS and 1% penicillin/streptomycin/amphotericin B to prepare a medium containing the test compound having a concentration of two times the final concentration. This medium was added at 100 μL/well to the coated plate. TFK-1 cells (Cell Resource Center for Biomedical Research, Institute of Development, Aging and Cancer, Tohoku University) cultured in RPMI medium 1640 containing 10% FBS and 1% penicillin/streptomycin/amphotericin B were suspended in RPMI medium 1640 containing 1% FBS and 1% penicillin/streptomycin/amphotericin B to prepare a cell suspension of 1×10^6 cells/mL. The prepared cell suspension was further added at 100 μL/well and cultured for 2 days in a 5% CO2 incubator (37° C.).
Phosphorylated SMAD3 in the cells thus cultured for 2 days was measured using Phospho-SMAD3 (Ser423/425) cellular kit (manufactured by cisbio, 63ADK025), and a DeltaF value was calculated according to the calculation expression of the kit. Inhibition when 10 μM LY364947 (FUJIFILM Wako Pure Chemical Corp., 123-05981) was added instead of the test compound was defined as 100% inhibition, and inhibition when DMSO was added instead was defined as 0% inhibition. The rate of inhibition of phosphorylated SMAD3 by the test compound was calculated according to the following expression.
Rate of inhibition of phosphorylated SMAD3 (%)=[1−{(DeltaF value in the case of adding the test compound)−(DeltaF value in the case of adding 10 μM LY364947)}/{(DeltaF value in the case of adding DMSO)−(DeltaF value in the case of adding 10 μM LY364947)}]×100
An IC50 value was calculated from the rate of inhibition of phosphorylated SMAD3 by the test compound. A: IC50<10 nM, B: 10 nM≤IC50<50 nM, C: 50 nM≤IC50<100 nM, or D: IC50≥100 nM.

For orientation: IC50 means the concentration that inhibits the measured activity by half.

T1 sequence (P06756 31-889 limits assumed): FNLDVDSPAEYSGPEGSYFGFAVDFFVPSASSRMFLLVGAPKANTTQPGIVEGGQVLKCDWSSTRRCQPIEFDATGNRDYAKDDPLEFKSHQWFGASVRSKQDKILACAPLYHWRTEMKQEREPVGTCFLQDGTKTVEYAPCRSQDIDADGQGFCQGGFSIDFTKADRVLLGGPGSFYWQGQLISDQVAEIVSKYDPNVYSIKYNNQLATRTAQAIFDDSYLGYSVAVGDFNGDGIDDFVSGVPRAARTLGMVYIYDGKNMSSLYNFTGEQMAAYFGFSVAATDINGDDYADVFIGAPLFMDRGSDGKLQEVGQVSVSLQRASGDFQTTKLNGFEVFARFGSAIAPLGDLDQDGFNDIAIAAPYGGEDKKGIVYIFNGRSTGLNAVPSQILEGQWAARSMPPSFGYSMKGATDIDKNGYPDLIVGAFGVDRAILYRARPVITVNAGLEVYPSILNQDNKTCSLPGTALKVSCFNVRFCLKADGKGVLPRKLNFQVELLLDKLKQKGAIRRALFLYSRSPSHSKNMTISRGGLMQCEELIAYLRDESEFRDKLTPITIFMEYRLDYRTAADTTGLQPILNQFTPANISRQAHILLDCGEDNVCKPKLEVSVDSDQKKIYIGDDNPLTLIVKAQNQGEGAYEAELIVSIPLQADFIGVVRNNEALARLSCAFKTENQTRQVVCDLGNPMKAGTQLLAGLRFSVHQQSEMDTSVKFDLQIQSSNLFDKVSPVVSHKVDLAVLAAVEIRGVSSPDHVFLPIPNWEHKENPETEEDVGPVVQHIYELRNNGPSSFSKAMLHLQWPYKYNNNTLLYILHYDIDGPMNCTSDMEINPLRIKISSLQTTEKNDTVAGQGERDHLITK
T1 sequence (P06756 891-1048 limits assumed): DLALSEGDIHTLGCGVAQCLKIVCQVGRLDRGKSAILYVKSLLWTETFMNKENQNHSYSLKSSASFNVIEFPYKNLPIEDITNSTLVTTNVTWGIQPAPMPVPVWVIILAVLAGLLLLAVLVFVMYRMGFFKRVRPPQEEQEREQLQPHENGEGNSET
T1 sequence (P18564 22-788): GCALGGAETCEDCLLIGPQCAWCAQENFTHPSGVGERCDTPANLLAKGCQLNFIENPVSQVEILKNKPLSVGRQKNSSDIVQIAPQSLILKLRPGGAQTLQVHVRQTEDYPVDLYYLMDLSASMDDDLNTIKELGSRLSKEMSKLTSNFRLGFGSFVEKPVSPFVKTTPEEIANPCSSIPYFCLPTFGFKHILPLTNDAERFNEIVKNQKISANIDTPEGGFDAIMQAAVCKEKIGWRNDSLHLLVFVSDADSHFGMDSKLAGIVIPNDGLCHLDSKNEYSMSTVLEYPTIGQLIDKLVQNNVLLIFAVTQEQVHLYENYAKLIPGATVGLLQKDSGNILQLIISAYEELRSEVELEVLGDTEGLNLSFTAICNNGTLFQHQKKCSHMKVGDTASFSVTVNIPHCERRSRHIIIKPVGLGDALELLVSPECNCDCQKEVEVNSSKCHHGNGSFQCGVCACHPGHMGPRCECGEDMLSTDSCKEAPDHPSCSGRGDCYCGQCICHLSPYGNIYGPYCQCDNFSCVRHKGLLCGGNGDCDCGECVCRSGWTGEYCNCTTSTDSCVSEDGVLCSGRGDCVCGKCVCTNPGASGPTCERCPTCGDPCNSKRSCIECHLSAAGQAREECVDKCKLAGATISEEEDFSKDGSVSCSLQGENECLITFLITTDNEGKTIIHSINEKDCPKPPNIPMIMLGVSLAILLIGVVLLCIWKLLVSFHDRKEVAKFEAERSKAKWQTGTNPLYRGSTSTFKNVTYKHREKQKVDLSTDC

Take `O=C(O)C[C@H](NC(=O)CNC(=O)c1cc(NC2=NCC(F)CN2)c2cn[nH]c2c1)c1cccc(-n2cccn2)c1` (stereo partly drawn) [Example 43-(b), (3S)-3-(3-(1H-pyrazol-1-yl)phenyl)-3-(2-(4-((5-fluoro-1,4,5,6-tetrahydropyrimidin-2-yl)amino)-1H-indazole-6-carboxamido)acetamido)propanoic acid]: the IC50 in experiment [1] is less than 3 nM; in experiment [2] it was less than 10 nM.

In the case of `O=C(O)C[C@H](NC(=O)CNC(=O)c1cc(NC2=NCC(F)CN2)c2cn[nH]c2c1)c1cccc(C(F)(F)F)c1Cl` (stereo partly drawn) [Example 10-(b), (3S)-3-(2-chloro-3-(trifluoromethyl)phenyl)-3-(2-(4-((5-fluoro-1,4,5,6-tetrahydropyrimidin-2-yl)amino)-1H-indazole-6-carboxamido)acetamido)propanoic acid], the half-inhibitory concentration (IC50) in experiment [1] and in experiment [2] was no less than 100 nM throughout.

Regarding `O=C(O)C[C@H](NC(=O)CNC(=O)c1cc(NC2=NCC(F)CN2)c2cn[nH]c2c1)c1cccc(OC(F)F)c1` (stereo partly drawn) [Example 37-(b), (3S)-3-(3-(difluoromethoxy)phenyl)-3-(2-(4-((5-fluoro-1,4,5,6-tetrahydropyrimidin-2-yl)amino)-1H-indazole-6-carboxamido)acetamido)propanoic acid], the IC50 in experiment [1] is less than 3 nM; in experiment [2], less than 10 nM.

Take `O=C(O)C[C@H](NC(=O)CNC(=O)c1cc(NC2=NCC(F)CN2)c2cn[nH]c2c1)c1cc(Cl)cc(I)c1` (stereo partly drawn) [Example 21-(b), (3S)-3-(3-chloro-5-iodophenyl)-3-(2-(4-((5-fluoro-1,4,5,6-tetrahydropyrimidin-2-yl)amino)-1H-indazole-6-carboxamido)acetamido)propanoic acid]: the results for the IC50 in experiment [1] and in experiment [2] were less than 3 nM and less than 10 nM, respectively.

For `O=C(O)C[C@H](NC(=O)CNC(=O)c1cc(NC2=NCC(F)CN2)c2cn[nH]c2c1)c1cc(Cl)cc(OC(F)(F)F)c1` (stereo partly drawn) [Example 31-(b), (3S)-3-(3-chloro-5-(trifluoromethoxy)phenyl)-3-(2-(4-((5-fluoro-1,4,5,6-tetrahydropyrimidin-2-yl)amino)-1H-indazole-6-carboxamido)acetamido)propanoic acid], the IC50 in experiment [1] is less than 3 nM; in experiment [2], less than 10 nM.

Consider `O=C(O)C[C@H](NC(=O)CNC(=O)c1cc(NC2=NCC(F)CN2)c2cn[nH]c2c1)c1cc(Br)cc(Br)c1` (stereo partly drawn) [Example 19-(b), (3S)-3-(3,5-dibromophenyl)-3-(2-(4-((5-fluoro-1,4,5,6-tetrahydropyrimidin-2-yl)amino)-1H-indazole-6-carboxamido)acetamido)propanoic acid], for which the IC50 in experiment [1] is less than 3 nM; in experiment [2], less than 10 nM.

For the compound `O=C(O)C[C@H](NC(=O)CNC(=O)c1cc(NC2=NCC(F)CN2)c2cn[nH]c2c1)c1cc(F)cc(C(F)(F)F)c1` (stereo partly drawn) [Example 6-(b), (3S)-3-(2-(4-((5-fluoro-1,4,5,6-tetrahydropyrimidin-2-yl)amino)-1H-indazole-6-carboxamido)acetamido)-3-(3-fluoro-5-(trifluoromethyl)phenyl)propanoic acid], the IC50 lay in the range of 3 to 10 nM in experiment [1] and 10 to 50 nM in experiment [2].

On to `O=C(O)C[C@H](NC(=O)CNC(=O)c1cc(NC2=NCC(F)CN2)c2cn[nH]c2c1)c1cccc(Cl)c1` (stereo partly drawn) [Example 41-(b), (3S)-3-(3-chlorophenyl)-3-(2-(4-((5-fluoro-1,4,5,6-tetrahydropyrimidin-2-yl)amino)-1H-indazole-6-carboxamido)acetamido)propanoic acid], for which the figures for the IC50 in experiment [1] and in experiment [2] were less than 3 nM and less than 10 nM, respectively.

Regarding `O=C(O)C[C@H](NC(=O)CNC(=O)c1cc(NC2=NCC(F)CN2)c2cn[nH]c2c1)c1cc(I)cc(C(F)(F)F)c1` (stereo partly drawn) [Example 3-(b), (3S)-3-(2-(4-((5-fluoro-1,4,5,6-tetrahydropyrimidin-2-yl)amino)-1H-indazole-6-carboxamido)acetamido)-3-(3-iodo-5-(trifluoromethyl)phenyl)propanoic acid], the IC50 in experiment [1] was less than 3 nM; in experiment [2], less than 10 nM.

For `O=C(O)C[C@H](NC(=O)CNC(=O)c1cc(NC2=NCC(F)CN2)c2cn[nH]c2c1)c1ccc(F)c(OC(F)(F)F)c1` (stereo partly drawn) [Example 34-(b), (3S)-3-(2-(4-((5-fluoro-1,4,5,6-tetrahydropyrimidin-2-yl)amino)-1H-indazole-6-carboxamido)acetamido)-3-(4-fluoro-3-(trifluoromethoxy)phenyl)propanoic acid], the results for the IC50 in experiment [1] and in experiment [2] were less than 3 nM and less than 10 nM, respectively.

As for `O=C(O)C[C@H](NC(=O)CNC(=O)c1cc(NC2=NCC(F)CN2)c2cn[nH]c2c1)c1cccc(C2CC2)c1` (stereo partly drawn) [Example 39-(b), (3S)-3-(3-cyclopropylphenyl)-3-(2-(4-((5-fluoro-1,4,5,6-tetrahydropyrimidin-2-yl)amino)-1H-indazole-6-carboxamido)acetamido)propanoic acid], the IC50 in experiment [1] was less than 3 nM; in experiment [2] it was less than 10 nM.

Consider `COc1ccc([C@H](CC(=O)O)NC(=O)CNC(=O)c2cc(NC3=NCC(F)CN3)c3cn[nH]c3c2)cc1Br` (stereo partly drawn) [Example 16-(b), (3S)-3-(3-bromo-4-methoxyphenyl)-3-(2-(4-((5-fluoro-1,4,5,6-tetrahydropyrimidin-2-yl)amino)-1H-indazole-6-carboxamido)acetamido)propanoic acid], for which the IC50 in experiment [1] is less than 3 nM; in experiment [2], 10 to 50 nM.

Turning to `O=C(O)C[C@H](NC(=O)CNC(=O)c1cc(NC2=NCC(F)CN2)c2cn[nH]c2c1)c1cccc(C(F)(F)F)c1F` (stereo partly drawn) [Example 9-(b), (3S)-3-(2-(4-((5-fluoro-1,4,5,6-tetrahydropyrimidin-2-yl)amino)-1H-indazole-6-carboxamido)acetamido)-3-(2-fluoro-3-(trifluoromethyl)phenyl)propanoic acid], the values for the IC50 in experiment [1] and in experiment [2] were less than 3 nM and 50 to 100 nM, respectively.

For the compound `O=C(O)C[C@H](NC(=O)CNC(=O)c1cc(NC2=NCC(F)CN2)c2cn[nH]c2c1)c1ccc(C(F)(F)F)cc1` (stereo partly drawn) [Example 47-(b), (3S)-3-(2-(4-((5-fluoro-1,4,5,6-tetrahydropyrimidin-2-yl)amino)-1H-indazole-6-carboxamido)acetamido)-3-(4-(trifluoromethyl)phenyl)propanoic acid], the IC50 in experiment [1] was in the range of 3 to 10 nM; in experiment [2], 10 to 50 nM.

Turning to `O=C(O)C[C@H](NC(=O)CNC(=O)c1cc(NC2=NCC(F)CN2)c2cn[nH]c2c1)c1cc(OC(F)F)cc(-n2cccn2)c1` (stereo partly drawn) [Example 29-(b), (3S)-3-(3-(difluoromethoxy)-5-(1H-pyrazol-1-yl)phenyl)-3-(2-(4-((5-fluoro-1,4,5,6-tetrahydropyrimidin-2-yl)amino)-1H-indazole-6-carboxamido)acetamido)propanoic acid], the IC50 is less than 3 nM in experiment [1] and less than 10 nM in experiment [2].
